According to patent publication US5717110A, “UCH15 compounds” (Kyowa Hakko Kogyo Co., Ltd., priority 1995, dated 1998):
pIC50: −log10 of the molar value. Converted amounts (≈) assume the structure as drawn.

What was measured:
[1] = system: Klebsiella pneumoniae ATCC 10031; test: Antibacterial activity, agar dilution method (MIC); type: cell-based; settings: ATCC10031, medium pH 7, read-out: Minimum Inhibitory Concentration
Method: (§1) These antibacterial activities were determined by the agar dilution method with the use of a medium (pH 7) comprising 3 g/liter of bactotryptone (manufactured by Difco), 3 g/liter of meat extract, 1 g/liter of yeast extract, 1 g/liter of glucose and 16 g/liter of agar.

[2] = system: Pseudomonas aeruginosa Bin H No. 1; test: Antibacterial activity, agar dilution method (MIC); type: cell-based; settings: medium pH 7, read-out: Minimum Inhibitory Concentration
Method: as §1

[3] = system: Salmonella choleraesuis ATCC 9992; test: Antibacterial activity, agar dilution method (MIC); type: cell-based; settings: Salmonella enterica, pH 7, read-out: Minimum Inhibitory Concentration
Method: as §1

[4] = system: Proteus vulgaris ATCC 6897; test: Antibacterial activity, agar dilution method (MIC); type: cell-based; settings: ATCC6897, medium pH 7, read-out: Minimum Inhibitory Concentration
Method: as §1

[5] = system: Shigella sonnei ATCC 9290; test: Antibacterial activity, agar dilution method (MIC); type: cell-based; settings: ATCC9290, medium pH 7, read-out: Minimum Inhibitory Concentration
Method: as §1

Escherichia coli ATCC 26 = test: Antibacterial activity, agar dilution method (MIC); type: cell-based; settings: ATCC26, medium pH 7, read-out: Minimum Inhibitory Concentration
Method: as §1

[6] = system: Bacillus subtilis No. 10707; test: Antibacterial activity, agar dilution method (MIC); type: cell-based; settings: medium pH 7, read-out: Minimum Inhibitory Concentration
Method: as §1

[7] = system: Enterococcus hirae ATCC 10541; test: Antibacterial activity, agar dilution method (MIC); type: cell-based; settings: ATCC10541, medium pH 7, read-out: Minimum Inhibitory Concentration
Method: as §1

[8] = system: Staphylococcus aureus ATCC 6538P; test: Antibacterial activity, agar dilution method (MIC); type: cell-based; settings: ATCC6538P, medium pH 7, read-out: Minimum Inhibitory Concentration
Method: as §1

[9] = system: Candida albicans ATCC 10231; test: Antibacterial activity, agar dilution method (MIC); type: cell-based; settings: ATCC10231, medium pH 7, read-out: Minimum Inhibitory Concentration
Method: as §1

[10] = system: Hela S3 cells (ATCC HTB22); test: Growth inhibition on Hela S3 cells; type: cell-based; settings: Homo sapiens, 72 hours incubation, Giemsa staining, read-out: IC50 against the cell growth
Method: Into each well of a 96-well microtiter plate was pipetted 0.1 ml of a 3.0×10^4 cells/ml suspension of Hela S3 cells (ATCC HTB22) in DEM medium containing 10% of fetal calf serum (manufactured by Nissui, hereinafter referred to as "medium A"). This plate was incubated in a carbon dioxide gas incubator at 37° C. for 20 hours. Then, 0.1 ml of the test compound, which had been appropriately diluted with the medium A, was added to each well followed by incubation in the carbon dioxide gas incubator at 37° C. for additional 72 hours. After having removed the culture supernatant, the residue was washed with physiological saline once and treated with 0.1 ml of methanol for 10 minutes to thereby fix the cells. Next, the cells were stained with 0.1 ml of Giemsa's staining solution [stock solution for Giemsa's staining Merck Art 9204 (manufactured by Merck): physiological saline=1:10] for 5 minutes. After having removed the staining solution, the residue was washed with 0.2 ml of water once. Then, the pigment was extracted with 0.2 ml of 0.1N hydrochloric acid, and the absorbance was measured at 620 nm by the use of a microplate reader. From the result of the measurement, the increased amount of the grown cells was determined. […]

sarcoma 180 tumor = test: Antitumor activity on sarcoma 180 tumor; type: in vivo, male ddY mice; settings: for Mean Tumor Volume: once into tail vein on day 1, measured on 7th day after implantation, ddY mice; for Antitumor Activity (T/C): once into tail vein, day 7, mean tumor volume test/control
Method: Male ddY mice were used herein, which were grouped into plural groups, each group being comprised of 5 mice. 5×10^6 sarcoma 180 tumor cells were implanted into the subcutaneous tissue in the axillary region of each mouse. On the 1st day after the implantation, a solution of UCH15B dissolved in physiological saline was injected once into the tail vein of each mouse. On the 7th day after the implantation, the mean tumor volume (mm^3) in each mouse was measured. […] Said antitumor activity was calculated according to the following equation.
=[mean tumor volume (mm^3) in mice in test group]/[mean tumor volume (mm^3) in mice in control group (to which was administered physiological saline only)]

[11] = system: human ovarian cancer strain A2780 tumor; test: Antitumor activity on human ovarian cancer strain A2780; type: in vivo; settings: 0.38 mg/kg, once into tail vein; nude mice (BALB/C-nu/nu); 14 days after injection; [V/V0]/[C/C0]
Method: Nude mice (BALB/C-nu/nu) were used herein, which were grouped into plural groups, each group being comprised of 5 mice. A human ovarian cancer strain A2780 tumor (a piece of 8mm^3) was implanted into the subcutaneous tissue in the abdominal region of each mouse. After the implantation, when the tumor volume in each tumor-carrying mouse reached between 50 and 300 mm^3, a solution of UCH15B in physiological saline was injected once into the tail vein of each mouse (in the test group). Just before the injection of said UCH15B solution, the volume of the tumor (V0) in each mouse was measured. 14 days after the injection thereof, the volume of the tumor (V) therein was measured. Into each mouse in the control group, only physiological saline was injected. Just before the injection of physiological saline, the volume of the tumor (C0) in each mouse was measured. 14 days after the injection thereof, the volume of the tumor (C) therein was measured. The antitumor activity of the test compound, UCH15B was obtained according to the following equation.
Antitumor Activity=[V/V0]/[C/C0 ]
V: tumor volume (mm^3) in test group after the test
V0 : tumor volume (mm^3) in test group before the test
C: tumor volume (mm^3) in control group after the test
C0 : tumor volume (mm^3) in control group before the test

Structure (SMILES) | MIC [1] [µg/mL] | MIC [2] [µg/mL] | MIC [3] [µg/mL] | MIC [4] [µg/mL] | MIC [5] [µg/mL] | MIC (Escherichia coli ATCC 26) [µg/mL] | MIC [6] [µg/mL] | MIC [7] [µg/mL] | MIC [8] [µg/mL] | MIC [9] [µg/mL] | pIC50 [10] | Mean Tumor Volume (sarcoma 180 tumor; 0.094 mg/kg) [mm^3] | Antitumor Activity (T/C) (sarcoma 180 tumor; 0.094 mg/kg) | Mean Tumor Volume (sarcoma 180 tumor; 0.19 mg/kg) [mm^3] | Antitumor Activity (T/C) (sarcoma 180 tumor; 0.19 mg/kg) | Mean Tumor Volume (sarcoma 180 tumor; 0.38 mg/kg) [mm^3] | Antitumor Activity (T/C) (sarcoma 180 tumor; 0.38 mg/kg) | Mean Tumor Volume (sarcoma 180 tumor; 0.75 mg/kg) [mm^3] | Antitumor Activity (T/C) (sarcoma 180 tumor; 0.75 mg/kg) | Antitumor Activity (T/C) [11]
N#CC(CC(=O)NC(C=O)C/C=C/CN)NC(=O)c1cc(NC(=O)c2cc(NC(=O)CNC(=N)N)c[nH]2)c[nH]1 (stereo not shown) [UCH15A] | 0.02 (≈ 0.0371 µM) | > 50 | 0.16 (≈ 0.297 µM) | 0.16 (≈ 0.297 µM) | 0.16 (≈ 0.297 µM) | 0.16 (≈ 0.297 µM) | 0.08 (≈ 0.148 µM) | 2.6 (≈ 4.82 µM) | 2.6 (≈ 4.82 µM) | 10.4 (≈ 19.3 µM) | 5.92 |  |  |  |  |  |  |  |  | 
N#CC(CC(=O)NC(C=O)C/C=C/CN)NC(=O)c1cc(NC(=O)c2cc(NC(=O)CNC(N)=NO)c[nH]2)c[nH]1 (stereo not shown) [UCH15B] | 0.04 (≈ 0.072 µM) | > 50 | 0.33 (≈ 0.594 µM) | 0.33 (≈ 0.594 µM) | 0.33 (≈ 0.594 µM) | 0.08 (≈ 0.144 µM) | 0.33 (≈ 0.594 µM) | 10.4 (≈ 18.7 µM) | 5.2 (≈ 9.36 µM) | > 41.7 | 6.00 | 1528 | 0.65 | 1405 | 0.60 | 1035 | 0.44 | 522 | 0.22 | 0.27
